Target: CGRP receptor (Homo sapiens, UniProt O60894+Q16602)
Experiment: CGRP radioligand binding assay ([125I]-CGRP displacement, SK-N-MC homogenate)
Set-up: endogenous in cells; host or cells: SK-N-MC cells (homogenate/membrane pellet)
Settings: displacement of [125I]-CGRP, SK-N-MC membranes
Method: CGRP Binding Assay. Tissue Culture. SK-N-MC cells were grown at 37° C. in 5% CO2 as a monolayer in medium consisting of MEM with Earle's salts and L-glutamine (Gibco) supplemented with 10% fetal bovine serum (Gibco). Cell Pellets. The cells were rinsed twice with phosphate-buffered saline (155 mM NaCl, 3.3 mM Na2HPO4, 1.1 mM KH2PO4, pH 7.4), and incubated for 5-10 min. at 4° C. in hypotonic lysis buffer consisting of 10 mM Tris (pH 7.4) and 5 mM EDTA. The cells were transferred from plates to polypropylene tubes (16×100 mm) and homogenized using a polytron. Homogenates were centrifuged at 32,000×g for 30 min. The pellets were resuspended in cold hypotonic lysis buffer with 0.1% mammalian protease inhibitor cocktail (Sigma) and assayed for protein concentration. The SK-N-MC homogenate was then aliquoted and stored at −80° C. until needed.
Radioligand Binding Assay. The compounds of invention were solubilized and carried through serial dilutions using 100% DMSO. Aliquots from the compound serial dilutions were further diluted 25 fold into assay buffer (50 mM Tris-Cl pH 7.5, 5 mM MgCl2, 0.005% Triton X-100) and transferred (volume 50 μl) into 96 well assay plates. [^125I]-CGRP (Amersham Biosciences) was diluted to 60 pM in assay buffer and a volume of […] was added to each well. SK-N-MC pellets were thawed, diluted in assay buffer with fresh 0.1% mammalian protease inhibitor cocktail (Sigma), and homogenized again. SK-N-MC homogenate (5 μg/well) was added in a volume of 100 μl. The assay plates were then incubated at room temperature for 2 h. Assays were stopped by addition of excess cold wash buffer (20 mM Tris-Cl pH 7.5, 0.1% BSA) immediately followed by filtration over glass fiber filters (Whatman GF/B) previously soaked in 0.5% PEI. Non-specific binding was defined with 1 μM beta-CGRP. Protein bound radioactivity was determined using a gamma or scintillation counter. The IC50 was defined as the concentration of a compound of invention required to displace 50% of radioligand binding.

Sequence of CGRP receptor (Q16602 23-461): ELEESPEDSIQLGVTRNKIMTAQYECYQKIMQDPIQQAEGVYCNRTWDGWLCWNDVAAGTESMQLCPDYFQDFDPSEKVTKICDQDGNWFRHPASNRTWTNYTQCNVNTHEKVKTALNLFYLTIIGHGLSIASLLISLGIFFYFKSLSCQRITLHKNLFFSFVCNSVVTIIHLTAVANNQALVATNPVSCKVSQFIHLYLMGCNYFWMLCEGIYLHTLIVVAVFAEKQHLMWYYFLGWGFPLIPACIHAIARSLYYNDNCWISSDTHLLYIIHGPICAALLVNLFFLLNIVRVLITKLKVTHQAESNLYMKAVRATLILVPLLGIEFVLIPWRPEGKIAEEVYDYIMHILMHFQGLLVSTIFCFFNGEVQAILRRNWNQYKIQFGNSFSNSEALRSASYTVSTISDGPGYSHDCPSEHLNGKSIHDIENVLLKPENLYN
Sequence of CGRP receptor (O60894 27-148): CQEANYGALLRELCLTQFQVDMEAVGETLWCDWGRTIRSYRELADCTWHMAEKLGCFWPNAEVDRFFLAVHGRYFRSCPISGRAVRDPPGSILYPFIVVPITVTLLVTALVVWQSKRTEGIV

Structure (SMILES) | IC50 (Table 1) | IC50 (Table 2)
O=C(C[C@@H]1Cc2cc(Cl)c3[nH]ncc3c2CN(CC(F)(F)F)C1=O)N1CCC(N2CCc3ccccc3NC2=O)CC1 | 0.01 to 10 nM | 
O=C(C[C@@H]1Cc2cc(Cl)c3[nH]ncc3c2CN(CC(F)(F)F)C1=O)N1CCC(n2ccn(-c3ccccc3)c2=O)CC1 | 100 to 1000 nM | 
O=C(C[C@@H]1Cc2cc(Cl)c3[nH]ncc3c2CN(CC(F)(F)F)C1=O)N1CCC(n2cc[nH]c2=O)CC1 | 0.01 to 10 nM | 
O=C(C[C@@H]1Cc2cc(Cl)c3[nH]ncc3c2CN(CC(F)(F)F)C1=O)N1CCC(n2c(=O)[nH]c3ccccc32)CC1 | 0.01 to 10 nM | 
N#Cc1cn(C2CCN(C(=O)C[C@@H]3Cc4cc(Cl)c5[nH]ncc5c4CN(CC(F)(F)F)C3=O)CC2)c(=O)[nH]1 | 10 to 100 nM | 
O=C(C[C@@H]1Cc2cc(Cl)c3[nH]ncc3c2CN(CC(F)(F)F)C1=O)N1CCC(n2ccn(-c3ccccc3F)c2=O)CC1 | > 1000 nM | 
O=C(C[C@@H]1Cc2cc(Cl)c3[nH]ncc3c2CN(CC(F)(F)F)C1=O)N1CCC(N2CCN(c3ccccc3F)C2=O)CC1 | > 1000 nM | 
O=C(C[C@@H]1Cc2cc(Cl)c3[nH]ncc3c2CN(CC(F)(F)F)C1=O)N1CCC(n2c(=O)[nH]c3ncccc32)CC1 | 0.01 to 10 nM | 
O=C(C[C@@H]1Cc2cc(Cl)c3[nH]ncc3c2CN(CC(F)(F)F)C1=O)N1CCC(n2c(=O)[nH]c3c2ccc[n+]3[O-])CC1 | 10 to 100 nM | 
O=C(C[C@@H]1Cc2cc(Br)c3[nH]nc(Br)c3c2CN(CC(F)(F)F)C1=O)N1CCC(n2c(=O)[nH]c3ncccc32)CC1 | 0.01 to 10 nM | 
O=C(C[C@@H]1Cc2cc(Br)c3[nH]nc(Br)c3c2CN(CC(F)(F)F)C1=O)N1CCC(N2CCc3ccccc3NC2=O)CC1 | 0.01 to 10 nM | 
O=C(C[C@@H]1Cc2cc(Cl)c3[nH]ncc3c2CN(CC(F)(F)F)C1=O)N1CCC(N2CCc3cccc(F)c3NC2=O)CC1 | 10 to 100 nM | 
O=C(C[C@@H]1Cc2cc(Cl)c3[nH]ncc3c2CN(CC(F)(F)F)C1=O)N1CCC(N2CCc3cccnc3NC2=O)CC1 | 0.01 to 10 nM | 
O=C(C[C@@H]1Cc2cc(Cl)c3[nH]ncc3c2CN(CC(F)(F)F)C1=O)N1CCC(N2CCc3ncccc3NC2=O)CC1 | 0.01 to 10 nM | 
O=C(C[C@@H]1Cc2cc(Cl)c3[nH]ncc3c2CN(CC(F)(F)F)C1=O)N1CCC(n2c(=O)[nH]c3c(F)cccc32)CC1 | 0.01 to 10 nM | 
O=C(C[C@@H]1Cc2cc(Br)c3[nH]nc(Cl)c3c2CN(CC(F)(F)F)C1=O)N1CCC(N2CCc3ccccc3NC2=O)CC1 | 0.01 to 10 nM | 
O=C(C[C@@H]1Cc2cc(Br)c3[nH]nc(Cl)c3c2CN(CC(F)(F)F)C1=O)N1CCC(n2c(=O)[nH]c3ncccc32)CC1 | 0.01 to 10 nM | 
O=C(C[C@@H]1Cc2cc(Cl)c3[nH]nc(Cl)c3c2CN(CC(F)(F)F)C1=O)N1CCC(N2CCc3ccccc3NC2=O)CC1 | 0.01 to 10 nM | 
O=C(C[C@@H]1Cc2cc(Cl)c3[nH]nc(Cl)c3c2CN(CC(F)(F)F)C1=O)N1CCC(n2c(=O)[nH]c3ncccc32)CC1 | 0.01 to 10 nM | 
O=C(C[C@@H]1Cc2cc(Cl)c3[nH]nc(Cl)c3c2CN(CCN2CCCCC2)C1=O)N1CCC(N2CCc3ccccc3NC2=O)CC1 | 0.01 to 10 nM | 

Structure (SMILES) | IC50 (Table 1) | IC50 (Table 2)
O=C(C[C@@H]1Cc2cc(Cl)c3[nH]nc(Cl)c3c2CN(CCN2CCCCC2)C1=O)N1CCC(n2c(=O)[nH]c3ncccc32)CC1 | 0.01 to 10 nM | 
Cn1ccc2[nH]c(=O)c(C3CCN(C(=O)C[C@@H]4Cc5cc(Cl)c6[nH]ccc6c5CN(CC(C)(C)C)C4=O)CC3)cc21 | 0.01 to 10 nM | 
CC(C)(C)CN1Cc2c(cc(Cl)c3[nH]ccc23)C[C@@H](CC(=O)N2CCC(c3cc4sccc4[nH]c3=O)CC2)C1=O | 0.01 to 10 nM | 
CC(C)(C)CN1Cc2c(cc(Cl)c3[nH]ncc23)C[C@@H](CC(=O)N2CCC(c3cc4scc(Br)c4[nH]c3=O)CC2)C1=O | 0.01 to 10 nM | 
CC(C)(C)CN1Cc2c(cc(Cl)c3[nH]ncc23)C[C@@H](CC(=O)N2CCC(c3cc4sc(Cl)cc4[nH]c3=O)CC2)C1=O | 0.01 to 10 nM | 
CC(C)(C)CN1Cc2c(cc(Cl)c3[nH]ccc23)C[C@@H](CC(=O)N2CCC(c3cc4[nH]ccc4[nH]c3=O)CC2)C1=O | 0.01 to 10 nM | 
CC(C)(C)CN1Cc2c(cc(Cl)c3[nH]ccc23)C[C@@H](CC(=O)N2CCC(O)(c3cc(Cl)nc4[nH]ccc34)CC2)C1=O | 100 to 1000 nM | 
O=C(O[C@@H]1Cc2cc(Cl)c3[nH]ncc3c2CN(CC(F)(F)F)C1=O)N1CCC(N2CCc3ccccc3NC2=O)CC1 | 0.01 to 10 nM | 
O=C(O[C@@H]1Cc2cc(Cl)c3[nH]ncc3c2CN(CC(F)(F)F)C1=O)N1CCC(n2c(=O)[nH]c3ncccc32)CC1 | 0.01 to 10 nM | 
O=C1Nc2ccccc2C2(CCN(C(=O)C[C@@H]3Cc4cc(Cl)c5[nH]ncc5c4CN(CC(F)(F)F)C3=O)CC2)N1 | 0.01 to 10 nM | 
O=C1NC(=O)C(C2CCN(C(=O)C[C@@H]3Cc4cc(Cl)c5[nH]ncc5c4CN(CC(F)(F)F)C3=O)CC2)N1 (some centres unmarked) | 100 to 1000 nM | 
O=C1NC(=O)C2(CCN(C(=O)C[C@@H]3Cc4cc(Cl)c5[nH]ncc5c4CN(CC(F)(F)F)C3=O)CC2)N1 | 10 to 100 nM | 
N#Cc1cc(Cl)ccc1C1=CCN(C(=O)C[C@@H]2Cc3cc(Cl)c4[nH]ncc4c3CN(CC(F)(F)F)C2=O)CC1 | 10 to 100 nM | 
Cn1ncc2c3c(cc(Cl)c21)C[C@@H](CC(=O)N1CCC(n2c(=O)[nH]c4ncccc42)CC1)C(=O)N(CC(F)(F)F)C3 | 0.01 to 10 nM | 
CCn1ncc2c3c(cc(Cl)c21)C[C@@H](CC(=O)N1CCC(n2c(=O)[nH]c4ncccc42)CC1)C(=O)N(CC(F)(F)F)C3 | 10 to 100 nM | 
O=C(C[C@@H]1Cc2cc(Cl)c3c(cnn3Cc3ccccc3)c2CN(CC(F)(F)F)C1=O)N1CCC(n2c(=O)[nH]c3ncccc32)CC1 | 10 to 100 nM | 
Cn1ncc2c3c(cc(Cl)c21)C[C@@H](CC(=O)N1CCC(N2CCc4ccccc4NC2=O)CC1)C(=O)N(CC(F)(F)F)C3 | 0.01 to 10 nM | 
CCCn1ncc2c3c(cc(Cl)c21)C[C@@H](CC(=O)N1CCC(N2CCc4ccccc4NC2=O)CC1)C(=O)N(CC(F)(F)F)C3 | 10 to 100 nM | 
COCn1ncc2c3c(cc(Cl)c21)C[C@@H](CC(=O)N1CCC(N2CCc4ccccc4NC2=O)CC1)C(=O)N(CC(F)(F)F)C3 | 10 to 100 nM | 
COCCn1ncc2c3c(cc(Cl)c21)C[C@@H](CC(=O)N1CCC(N2CCc4ccccc4NC2=O)CC1)C(=O)N(CC(F)(F)F)C3 | 0.01 to 10 nM | 

Structure (SMILES) | IC50 (Table 1) | IC50 (Table 2)
O=C(C[C@@H]1Cc2cc(Cl)c3[nH]ncc3c2CN(Cc2ccncc2)C1=O)N1CCC(c2cc3cccc(F)c3[nH]c2=O)CC1 |  | 0.01 to 10 nM
O=C1Nc2ccccc2CC1N1CCN(C(=O)N[C@@H]2Cc3ccc4[nH]ncc4c3CN(Cc3ccccc3)C2=O)CC1 (some centres unmarked) |  | 100 to 1000 nM
CC(C)(C)CN1Cc2c(ccc3[nH]ncc23)C[C@@H](NC(=O)N2CCC3(CC2)N=C(c2ccccc2)NC3=O)C1=O |  | 100 to 1000 nM
CC(C)(C)CN1Cc2c(ccc3[nH]ncc23)C[C@@H](NC(=O)N2CCC3(CC2)CC(=O)Nc2ccccc23)C1=O |  | > 1000 nM
CC(=O)N1CCC(N2Cc3c(ccc4[nH]ncc34)C[C@@H](NC(=O)N3CCC(N4Cc5ccccc5NC4=O)CC3)C2=O)CC1 |  | 10 to 100 nM
COc1cc2ccccc2cc1C1CCN(C(=O)N[C@@H]2Cc3cc(Cl)c4[nH]ncc4c3CN(CC(C)(C)C)C2=O)CC1 |  | > 1000 nM
O=C(C[C@@H]1Cc2cc(Cl)c3[nH]ncc3c2CN(CC(F)(F)F)C1=O)N1CCC(N2Cc3ccccc3NC2=O)CC1 |  | 0.01 to 10 nM
CC(C)(C)CN1Cc2c(cc(Cl)c3[nH]ncc23)C[C@@H](CC(=O)N2CCC(N3Cc4cccnc4NC3=O)CC2)C1=O |  | 0.01 to 10 nM
CC(C)(C)CN1Cc2c(cc(Cl)c3[nH]ncc23)C[C@@H](CC(=O)N2CCC(c3cc4cccnc4[nH]c3=O)CC2)C1=O |  | 0.01 to 10 nM
O=C(C[C@@H]1Cc2cc(Cl)c3[nH]ncc3c2CN(Cc2ccncc2)C1=O)N1CCC(c2cc3ccccc3c[n+]2[O-])CC1 |  | 0.01 to 10 nM
CC(C)(C)CN1Cc2c(cc(Cl)c3[nH]ncc23)C[C@@H](CC(=O)Nc2ccc3c(c2)CCC2(C3)NC(=O)NC2=O)C1=O (some centres unmarked) |  | 0.01 to 10 nM
CC(C)(C)CN1Cc2c(ccc3[nH]ncc23)CC(N/C(=N/C#N)N2CCC(N3Cc4ccccc4NC3=O)CC2)C1=O (centres unmarked) |  | 0.01 to 10 nM
O=C(C[C@@H]1Cc2cc(Cl)c3[nH]ncc3c2CN(CC(F)(F)F)C1=O)N1CCC(c2cc3cccnc3[nH]c2=O)CC1 |  | 0.01 to 10 nM
O=C(C[C@@H]1Cc2cc(Cl)c3[nH]ncc3c2CN(CC(F)(F)F)C1=O)N1CCC(c2cc3ccccc3[nH]c2=O)CC1 |  | 0.01 to 10 nM
O=C(C[C@@H]1Cc2cc(Cl)c3[nH]ncc3c2CN(CC(F)(F)F)C1=O)N1CCC(c2cc3cccc(F)c3[nH]c2=O)CC1 |  | 0.01 to 10 nM
CC(C)(C)CN1Cc2c(cc(Br)c3[nH]ncc23)C[C@@H](CC(=O)N2CCC(c3cc4ccccc4[nH]c3=O)CC2)C1=O |  | 0.01 to 10 nM
O=C(C[C@@H]1Cc2cc(Br)c3[nH]ncc3c2CN(CC(F)(F)F)C1=O)N1CCC(c2cc3cccnc3[nH]c2=O)CC1 |  | 0.01 to 10 nM
O=C(C[C@@H]1Cc2cc(Br)c3[nH]ncc3c2CN(CC(F)(F)F)C1=O)N1CCC(c2cc3ccccc3[nH]c2=O)CC1 |  | 0.01 to 10 nM
CC(C)(C)CN1Cc2c(cc(Cl)c3[nH]ncc23)C[C@@H](N/C(=N/C#N)N2CCC(c3cc4ccccc4[nH]c3=O)CC2)C1=O |  | 0.01 to 10 nM

— patent US7470680B2, “Constrained compounds as CGRP-receptor antagonists” (Bristol-Myers Squibb Company, priority 2006, dated 2008)
